In PubChem BioAssay (NCI):
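Method: 48-hour compound exposure of cells in 96-well plates, five concentrations, linear interpolation of endpoints. At the TGI there is no net growth.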

Tests used:
Assay in all cases: growth of human tumour cells (NCI), 48 h
RPMI-8226 leukemia = tested on: RPMI-8226 leukemia
SK-MEL-28 melanoma = tested on: SK-MEL-28 melanoma
SF-295 CNS = tested on: SF-295 CNS
CCRF-CEM leukemia = tested on: CCRF-CEM leukemia
MDA-N = tested on: MDA-N
T-47D breast = tested on: T-47D breast
LOX IMVI melanoma = tested on: LOX IMVI melanoma
M14 melanoma = tested on: M14 melanoma
SK-OV-3 ovarian = tested on: SK-OV-3 ovarian
UO-31 renal = tested on: UO-31 renal
HT29 colon = tested on: HT29 colon
MALME-3M melanoma = tested on: MALME-3M melanoma

O=Cc1c2n(c3ccccc13)N[C@@](Cc1ccc(O)cc1)(C(=O)O)C2
TGI (RPMI-8226 leukemia): > 100 µM
TGI (SK-MEL-28 melanoma): > 100 µM
TGI (SF-295 CNS): > 100 µM
TGI (CCRF-CEM leukemia): > 100 µM
TGI (MDA-N): > 100 µM
TGI (T-47D breast): > 100 µM
TGI (LOX IMVI melanoma): > 100 µM
TGI (M14 melanoma): > 100 µM
TGI (SK-OV-3 ovarian): > 100 µM
TGI (UO-31 renal): > 100 µM
TGI (HT29 colon): > 100 µM
TGI (MALME-3M melanoma): > 100 µM

CC(=O)Nc1ccc(NS(=O)(=O)c2ccc3nc(C)n(NS(=O)(=O)c4ccc(NC(C)=O)cc4)c(=O)c3c2)cc1
TGI (RPMI-8226 leukemia): > 100 µM
TGI (SK-MEL-28 melanoma): > 100 µM
TGI (SF-295 CNS): > 100 µM
TGI (CCRF-CEM leukemia): > 100 µM
TGI (MDA-N): > 100 µM
TGI (T-47D breast): > 100 µM
TGI (LOX IMVI melanoma): > 100 µM
TGI (M14 melanoma): > 100 µM
TGI (SK-OV-3 ovarian): > 100 µM
TGI (UO-31 renal): > 100 µM
TGI (HT29 colon): > 100 µM
TGI (MALME-3M melanoma): > 100 µM

Cc1sc2[nH]c(=O)oc(=O)c2c1C
TGI (RPMI-8226 leukemia): > 100 µM
TGI (SK-MEL-28 melanoma): > 100 µM
TGI (SF-295 CNS): > 100 µM
TGI (CCRF-CEM leukemia): > 100 µM
TGI (MDA-N): > 100 µM
TGI (T-47D breast): > 100 µM
TGI (LOX IMVI melanoma): > 100 µM
TGI (M14 melanoma): > 100 µM
TGI (SK-OV-3 ovarian): > 100 µM
TGI (UO-31 renal): > 83.3 µM
TGI (HT29 colon): > 100 µM
TGI (MALME-3M melanoma): > 100 µM

CC1=NN(c2nc(N)nc(CBr)n2)C(C)(C)C1
TGI (RPMI-8226 leukemia): 5.61 µM
TGI (SK-MEL-28 melanoma): 27.2 µM
TGI (SF-295 CNS): 24.8 µM
TGI (CCRF-CEM leukemia): 0.983 µM
TGI (MDA-N): 25.5 µM
TGI (T-47D breast): 18 µM
TGI (LOX IMVI melanoma): 1.89 µM
TGI (M14 melanoma): 21.2 µM
TGI (SK-OV-3 ovarian): 38.7 µM
TGI (UO-31 renal): 1.61 µM
TGI (HT29 colon): 18.6 µM
TGI (MALME-3M melanoma): 7.54 µM

NC(CSCc1ccc(I)cc1)C(=O)O (configuration not stated)
TGI (RPMI-8226 leukemia): > 100 µM
TGI (SK-MEL-28 melanoma): > 100 µM
TGI (SF-295 CNS): > 100 µM
TGI (CCRF-CEM leukemia): > 100 µM
TGI (MDA-N): > 100 µM
TGI (T-47D breast): > 100 µM
TGI (LOX IMVI melanoma): > 100 µM
TGI (M14 melanoma): > 100 µM
TGI (SK-OV-3 ovarian): > 100 µM
TGI (UO-31 renal): > 100 µM
TGI (HT29 colon): > 100 µM
TGI (MALME-3M melanoma): > 100 µM

Cn1c(NNc2ccccc2)cc(=O)[nH]c1=O
TGI (RPMI-8226 leukemia): > 100 µM
TGI (SK-MEL-28 melanoma): > 100 µM
TGI (SF-295 CNS): > 100 µM
TGI (CCRF-CEM leukemia): 53 µM
TGI (MDA-N): 45.4 µM
TGI (T-47D breast): > 100 µM
TGI (LOX IMVI melanoma): > 100 µM
TGI (M14 melanoma): > 100 µM
TGI (SK-OV-3 ovarian): > 100 µM
TGI (UO-31 renal): > 100 µM
TGI (HT29 colon): > 100 µM
TGI (MALME-3M melanoma): > 100 µM

COC(=O)/C(=N\NC(N)=O)C(C(=O)C(=O)Nc1ccccc1OC)c1nc2ccc([N+](=O)[O-])cc2[nH]c1=O (configuration not stated)
TGI (RPMI-8226 leukemia): > 100 µM
TGI (SK-MEL-28 melanoma): > 100 µM
TGI (SF-295 CNS): > 100 µM
TGI (CCRF-CEM leukemia): > 100 µM
TGI (MDA-N): > 100 µM
TGI (T-47D breast): > 100 µM
TGI (LOX IMVI melanoma): > 100 µM
TGI (M14 melanoma): > 100 µM
TGI (SK-OV-3 ovarian): > 100 µM
TGI (UO-31 renal): > 100 µM
TGI (HT29 colon): > 100 µM
TGI (MALME-3M melanoma): > 100 µM

O=C(NC(Cl)(C(F)(F)F)C(F)(F)F)c1ccc(F)cc1
TGI (RPMI-8226 leukemia): > 100 µM
TGI (SK-MEL-28 melanoma): > 100 µM
TGI (SF-295 CNS): > 100 µM
TGI (CCRF-CEM leukemia): > 100 µM
TGI (MDA-N): > 100 µM
TGI (T-47D breast): > 100 µM
TGI (LOX IMVI melanoma): > 100 µM
TGI (M14 melanoma): > 100 µM
TGI (SK-OV-3 ovarian): > 100 µM
TGI (UO-31 renal): > 100 µM
TGI (HT29 colon): > 100 µM
TGI (MALME-3M melanoma): > 100 µM

CCCCCCCCCCCCCCCCCCNc1ccn(C2OC(COP(=O)(O)OCC3OC(n4cc(C)c(=O)[nH]c4=O)CC3F)C(O)C2O)c(=O)n1 (configuration not stated)
TGI (RPMI-8226 leukemia): 12.9 µM
TGI (SK-MEL-28 melanoma): 17.6 µM
TGI (SF-295 CNS): 41.9 µM
TGI (CCRF-CEM leukemia): 12.4 µM
TGI (MDA-N): 38.9 µM
TGI (T-47D breast): 44.2 µM
TGI (LOX IMVI melanoma): 14.9 µM
TGI (M14 melanoma): 30.9 µM
TGI (SK-OV-3 ovarian): 18 µM
TGI (UO-31 renal): 43.6 µM
TGI (HT29 colon): > 55 µM
TGI (MALME-3M melanoma): 40.9 µM

CC1(C)CC(O)C2=C(O1)C(=O)c1ncccc1C2=O (configuration not stated)
TGI (RPMI-8226 leukemia): > 22.6 µM
TGI (SK-MEL-28 melanoma): 3.16 µM
TGI (SF-295 CNS): 3.35 µM
TGI (CCRF-CEM leukemia): > 20.7 µM
TGI (MDA-N): 3.45 µM
TGI (T-47D breast): 5.91 µM
TGI (LOX IMVI melanoma): 3.4 µM
TGI (M14 melanoma): 4.22 µM
TGI (SK-OV-3 ovarian): 27.4 µM
TGI (UO-31 renal): 4.34 µM
TGI (HT29 colon): 35.8 µM
TGI (MALME-3M melanoma): 3.17 µM

CCOP(=O)(OCC)C(C)(C)N(C)/C(F)=N/C(F)(F)F
TGI (RPMI-8226 leukemia): > 100 µM
TGI (SK-MEL-28 melanoma): > 100 µM
TGI (SF-295 CNS): > 100 µM
TGI (CCRF-CEM leukemia): > 100 µM
TGI (MDA-N): > 100 µM
TGI (T-47D breast): > 100 µM
TGI (LOX IMVI melanoma): > 100 µM
TGI (M14 melanoma): > 100 µM
TGI (SK-OV-3 ovarian): > 100 µM
TGI (UO-31 renal): > 100 µM
TGI (HT29 colon): > 100 µM
TGI (MALME-3M melanoma): > 100 µM
